According to article PMC4609890, “Discovery of novel small molecule modulators of Clavibacter michiganensis subsp. michiganensis” (Frontiers in Microbiology, 2015):
≈ marks a conversion by molar mass, not a printed value.

How the values were obtained:
[1] = tested on: Clavibacter michiganensis subsp. michiganensis (Cmm); assay: Minimum inhibitory concentration (MIC) for Cmm growth; type: cell-based; conditions: read-out: MICs
Protocol: Seventy-seven selected compounds were re-ordered from ChemBridge in a 96-well format as a powder. The compounds were dissolved in 100 μl DMSO and stored at -80°C until used. […] In addition, ability of Cmm to develop resistance to selected compounds was tested. […]

[2] = tested on: Clavibacter michiganensis subsp. michiganensis (Cmm); assay: Minimum bacteriocidal concentration (MBC) for Cmm; type: cell-based; conditions: read-out: MBCs
Protocol: (§1) Seventy-seven selected compounds were re-ordered from ChemBridge in a 96-well format as a powder. The compounds were dissolved in 100 μl DMSO and stored at -80°C until used. […] In addition, ability of Cmm to develop resistance to selected compounds was tested.
(§2) Single step and sequential passage resistance assays were performed as described previously with few modifications ([Ling et al., 2015]). Eleven of the 12 top hit compounds were tested in this experiment and one could not be resynthesized. […] The MBCs for each of these compounds were determined as described previously ([Ling et al., 2015]).

[3] = tested on: Clavibacter michiganensis subsp. michiganensis (Cmm); assay: Resistance evaluation by sequential passage at sub-lethal doses; type: cell-based; conditions: 15 passages in liquid NBY at 0.75X MIC
Protocol: as §2
Clavibacter michiganensis subsp. michiganensis cultures grown in NBY broth medium at 28°C for 24 h were suspended in fresh NBY broth and normalized to an OD600 of 0.01 (5 × 10^6 CFU/ml). One-hundred microliters fresh culture was transferred to duplicate wells of a 96-well microtiter plate each containing 0.75× MIC of a test compound (concentration allowing >50% growth inhibition). Cmm cultured in 20 μg/ml chloramphenicol, 50 μg/ml kanamycin, or 2% DMSO, or non-amended NBY broth were used as controls. The bacteria were incubated at 28°C, 150 rpm, for 24 h in the dark. Following incubation, plates were centrifuged at 2,100 × g for 5 min at room temperature. The supernatant was discarded, bacteria were resuspended in 100 μl fresh NBY and transferred into a new 96-well plate containing 0.75× MIC of the same small molecule. This procedure was repeated 14 times. Following 15 passages, bacterial suspensions were assessed for resistance to the test compound by assessing MIC and MBC as noted above.

[4] = tested on: Clavibacter michiganensis subsp. michiganensis (Cmm); assay: Resistance evaluation by single step at a lethal dose; type: cell-based; conditions: 5 days on NBY agar with 2X MIC, 1 × 10^9 CFU
Protocol: as §2
Cmm grown in NBY medium at 28°C for 48 h was centrifuged at 4,700 × g for 15 min at room temperature. Supernatant was discarded and bacteria were resuspended in sterile water to a concentration of 2 × 10^10 CFU/ml). Compounds (2× MIC) were mixed with […] of molten NBY agar medium and transferred to duplicate wells of a 24-well culture plate. Agar in the plate was allowed to solidify in the dark. Fifty microlitre of Cmm culture (1 × 10^9 CFU) was added to test wells, dried in the dark at room temperature, and incubated at 28°C for 5 days in the dark. Bacteria spread on NBY agar with 50 μg/ml kanamycin or NBY agar itself was used as positive and negative controls, respectively. After 5 days of incubation, any colonies that developed were assessed for resistance to the test compounds by determining MIC and the MBC as noted above.

[5] = tested on: Gram-negative bacteria tested; assay: Secondary screen kinetic growth inhibition of Gram-negative bacteria; type: cell-based; conditions: 200 μM
Protocol: as §1
(§3) Screening for growth inhibition of Cmm strains, plant beneficial bacteria and human gut bacteria was set up similarly to the initial screen using 1 μl of 2 μmol suspensions of each compound. Plates were incubated in a Sunrise^TM Tecan microplate reader for kinetic measurement of growth every 15 min for 24 h. Growth curves were analyzed in DB interface software and the effect of each compound on growth was evaluated based on the ratio of area under growth curve (compound/control) as “no significant effect (ratio > 0.5),” “inhibition (ratio ≤ 0.5),” “static (ratio = 0, bacterial growth revived after streak on a fresh NBY plate)” and “cidal (ratio = 0, bacterial growth not revived)” ([Wallace et al., 2011]).

Cmm strains = assay: Secondary screen kinetic growth inhibition of Cmm strains; type: cell-based, Clavibacter michiganensis subsp. michiganensis; conditions: kinetic growth 24 h
Protocol: as §1, §3

Bacillus subtilis GB03 = assay: Secondary screen kinetic growth inhibition of B. subtilis; type: cell-based; conditions: 200 μM
Protocol: as §1, §3

[6] = tested on: plant beneficial bacteria and human gut bacteria; assay: Secondary screen on plant beneficial bacteria and human gut bacteria (antibacterial spectrum); type: cell-based; conditions: compared with other 11 compounds; data not shown
Protocol: as §1, §3

Cmm BL-Cmm17 = assay: Bioluminescent Cmm tomato seedling infection assay; type: in vivo; conditions: seeds infested with BL-Cmm17, compound applied to seed, 8-days-old seedlings plated
Protocol: A bioluminescent Cmm strain, BL-Cmm17, was used to monitor the effect of selected small molecules on Cmm infection of tomato seedlings in vivo ([Xu et al., 2010]). Briefly, tomato seeds (cv. OH9242) were infested by soaking in BL-Cmm17 suspension (10^8 CFU/ml) in a 100-ml sterile beaker. The beaker was placed in a Nucerite Desiccator (Nalge Sybron Corporation, Rochester, NY, USA), and a vacuum was applied for 5 min using an Air Cadet pump (Barnant, Barrington, IL, USA) with a maximum of 18 lb/in^2 pressure. Seeds treated similarly with sterilized water were used as controls. After inoculation, seeds were air-dried and one seed was placed in a 1.2 ml library tube containing 400 μl of 1% water agar; tubes were placed in wells of a 96-well plate. The selected compound (1 μl of 2 μmol in 50 μl water) was applied to each seed and the plate was incubated at 25°C under 8 h/16 h light/dark conditions. There were three replicate seeds/plate per treatment. Bioluminescence images were taken using an in vivo imaging system (IVIS Model 100; PerkinElmer, Waltham, MA, USA) 3 and 8 days later. Eight-days-old seedlings were ground in potassium phosphate buffer and extracts were serially diluted and plated on NBY to assess the presence of Cmm.

Compound | MIC [1] [µM] | MBC [2] [µM] | Resistant colonies after growth at sub-lethal (0.75X MIC) concentration [3] | Resistant colonies after incubation at lethal (2X MIC) concentration [4] | Effect on growth of Gram-negative bacteria tested [5] | Effect on Cmm growth (Cmm strains) | Effect on B. subtilis growth (Bacillus subtilis GB03) | Antibacterial spectrum [6] | Cmm growth reduction in tomato seedlings (Cmm BL-Cmm17)
COc1cccc(-c2ccccc2NC(=O)C2CCN(Cc3ccc(OC)cc3F)CC2)c1 [Compound 1] | 25 (≈ 11.2 µg/mL) | 25 (≈ 11.2 µg/mL) | None | None |  |  |  |  | 
CN(Cc1nc2ccccc2[nH]1)Cc1c[nH]nc1-c1ccc(-c2ccccc2)cc1 [Compound 2] | 25 (≈ 9.84 µg/mL) | 50 (≈ 19.7 µg/mL) | None | None |  |  |  |  | 
Cc1cc(O)ccc1Nc1nc(-c2cccs2)cs1 [Compound 3] | 50 (≈ 14.4 µg/mL) | 50 (≈ 14.4 µg/mL) | None | None | not | cidal (cidal (ratio = 0, bacterial growth not revived)) | cidal (cidal (ratio = 0, bacterial growth not revived)) |  | 
CC(C)Cc1ccc(CN2CCCC(NC(=O)CCn3c(CO)nc4ccccc43)C2)cc1 (stereo not drawn) [Compound 4] | 100 (≈ 44.9 µg/mL) | 100 (≈ 44.9 µg/mL) | None | None |  |  |  |  | 
CC1CCC(C(C)C)C(OC(=O)Cn2c[n+](CC(=O)OC3CC(C)CCC3C(C)C)c3ccccc32)C1 (stereo not drawn) [Compound 5] | 5 | 5 | None | None |  |  |  | broader antibacterial spectrum | 
O=C(Nc1cccc(-c2cscn2)c1)C1CCN(C/C=C/c2ccc(F)cc2)CC1 [Compound 6] | 50 (≈ 21.1 µg/mL) | 50 (≈ 21.1 µg/mL) | None | None |  |  |  |  | 
Cc1ccnc(Nc2nc(-c3ccc(O)c(O)c3)cs2)c1 [Compound 7] | 50 (≈ 15 µg/mL) | 50 (≈ 15 µg/mL) | None | None | not | cidal (cidal (ratio = 0, bacterial growth not revived)) | cidal (cidal (ratio = 0, bacterial growth not revived)) |  | 
CCOC(=O)N1CCN(CC(O)COc2ccc(C3CCCCC3)cc2)CC1 (stereo not drawn) [Compound 8] | 50 (≈ 19.5 µg/mL) | 50 (≈ 19.5 µg/mL) | None | None |  |  |  |  | 
CCCOc1ccc(C(=O)C2=C(O)C(=O)N(CCCN(C)C)C2c2ccc(Cl)cc2)cc1C (stereo not drawn) [Compound 9] | 50 (≈ 23.5 µg/mL) | 100 (≈ 47.1 µg/mL) | None | None |  |  |  |  | 
COc1cccc(-c2ccc(NC(=O)C3CCCN(Cc4cccc(O)c4)C3)cc2)c1 (stereo not drawn) [Compound 12] | 12.5 (≈ 5.21 µg/mL) | 25 (≈ 10.4 µg/mL) | None | None |  |  |  |  | over 0.5 log
